Experimental data: patent publication US5731326A, “PDGF antagonists II” (ZymoGenetics, Inc., priority 1996, dated 1998)

Key:
PDGF = assay: SRE-luciferase antagonist assay, induction by PDGF; type: cell-based; settings: Swiss-3T3, SWISS3T3 cells, 5 hours, approximate
Source text: (§1) Initial characterization of NNC92-0270 as a non-peptide PDGF antagonist was made possible through an SRE-Luciferase high through-put assay system which involves selection of substances that are able to block expression of a serum response element (SRE)-luciferase reporter gene expressed in SWISS3T3 cells. […] The degree of antagonist specificity can be determined by comparing the resultant signal for the three growth factors (PDGF, bFGF and EGF). […]
(§2) Following induction, luciferase activity was measured using a Promega luciferase assay kit (E1500; Promega Corp., Madison, Wis.) according to the assay kit protocol. […] The amount of luminescence (relative light units, RLU) was determined following a 1 second mix and a 1-3 integration of signal. Basal (uninduced) luciferase signal was subtracted from all measurements, and the luciferase signal induced by test samples was expressed as a percentage of the signal in the control. […]

bFGF = assay: SRE-luciferase antagonist assay, induction by bFGF; type: cell-based; settings: Swiss-3T3, SWISS3T3 cells, 5 hours, approximate
Source text: as §1, §2

[1] = target: T1, cell-surface PDGF receptors (Rattus norvegicus, UniProt Q05030); assay: Inhibition of 125I-PDGF-BB binding to rat SMCs; settings: for 125I PDGF-BB Bound (CPM): specific cpm, nonspecific subtracted, negative control 10006
T1 construct: endogenous in cells; host or cells: rat smooth muscle cells (SMCs), monolayer culture
Protocol: NNC92-0270 was analyzed for the ability to inhibit ^125 I-PDGF-BB binding to monolayers of rat SMCs. To assay for inhibition of ^125 I-PDGF-BB binding to rat SMCs, the SMCs were plated at approximately 20,000 cells/well in 24-well culture dishes. The cells were used for assay 2-7 days after plating. The test compound was diluted in binding media (500 ml Ham's F-12 (Gibco BRL), 12 ml 1M Hepes pH 7.4, 5 ml 100×PSN (Gibco BRL), 1 gm rabbit serum albumin (Sigma Chemical Co., St. Louis, Mo.) to the concentrations shown in Table 2, then added to the SMCs (1 ml/well) in triplicate. To the wells was then added 50 μl of a ^125 I-PDGF-BB stock solution. Binding media alone was used as the negative control, and the addition of 200 ng/ml of PDGF-BB was used to determine nonspecific binding for ^125 I-PDGF-BB. The cells were incubated for approximately 11/2 hours at 4° C., then washed with binding media to remove unbound ligand. The cells were then incubated with extraction buffer (20 mM Tris-HCl, pH 8.0, 100 mM NaCl, 1 mM EDTA, 0.5% Nonident P-40, 0.5% sodium deoxycholate, 10 mM NaI, 1% bovine serum albumin), and the extracts were harvested and counted in a gamma counter. The data are presented as specific cpm bound for ^125 I-PDGF-BB. Nonspecific binding, determined by the addition of 200 ng/ml of unlabeled PDGF-BB, was 853 cpm, and has been subtracted from the data presented.

T1 sequence (Q05030 32-1097): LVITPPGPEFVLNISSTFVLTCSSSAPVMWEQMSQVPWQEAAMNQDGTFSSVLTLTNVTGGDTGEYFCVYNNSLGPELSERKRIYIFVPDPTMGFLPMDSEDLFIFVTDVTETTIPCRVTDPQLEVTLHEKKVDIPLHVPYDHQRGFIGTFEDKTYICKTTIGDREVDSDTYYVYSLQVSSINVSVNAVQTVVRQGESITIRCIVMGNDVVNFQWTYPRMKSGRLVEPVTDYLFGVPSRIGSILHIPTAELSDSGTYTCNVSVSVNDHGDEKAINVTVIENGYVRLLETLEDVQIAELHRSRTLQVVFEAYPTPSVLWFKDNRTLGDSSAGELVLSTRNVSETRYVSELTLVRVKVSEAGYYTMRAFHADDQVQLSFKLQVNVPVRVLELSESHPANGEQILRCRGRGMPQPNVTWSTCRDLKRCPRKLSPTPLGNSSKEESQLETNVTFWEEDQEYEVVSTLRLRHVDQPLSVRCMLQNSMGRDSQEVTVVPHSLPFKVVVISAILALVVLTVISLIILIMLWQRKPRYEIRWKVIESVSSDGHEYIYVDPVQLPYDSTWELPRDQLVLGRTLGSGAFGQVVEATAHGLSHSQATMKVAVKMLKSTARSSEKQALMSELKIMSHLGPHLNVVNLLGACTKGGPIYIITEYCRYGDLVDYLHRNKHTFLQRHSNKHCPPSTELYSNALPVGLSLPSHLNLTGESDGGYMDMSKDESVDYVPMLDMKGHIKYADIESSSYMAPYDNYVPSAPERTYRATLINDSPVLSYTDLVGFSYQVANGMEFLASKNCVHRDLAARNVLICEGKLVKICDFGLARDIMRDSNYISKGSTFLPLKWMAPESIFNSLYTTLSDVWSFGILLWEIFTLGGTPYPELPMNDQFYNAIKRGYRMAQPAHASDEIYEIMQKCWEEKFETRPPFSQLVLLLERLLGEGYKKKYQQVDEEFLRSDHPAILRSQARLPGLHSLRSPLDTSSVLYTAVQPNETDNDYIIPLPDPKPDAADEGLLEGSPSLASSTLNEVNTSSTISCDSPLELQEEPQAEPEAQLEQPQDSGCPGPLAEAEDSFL

## O=C(NN1CCCCC1)NS(=O)(=O)c1ccc(CCNC(=O)c2[nH]c3ccccc3c2OCc2ccccc2)cc1 [NNC92-0270]
PDGF
  IC50: 13 µM
bFGF
  IC50: > 100 µM
[1]; 6.2 μM
  125I PDGF-BB Bound (CPM): 5228 CPM
[1]; 12.5 μM
  125I PDGF-BB Bound (CPM): 2823 CPM
[1]; 25 μM
  125I PDGF-BB Bound (CPM): 920 CPM
[1]; 50 μM
  125I PDGF-BB Bound (CPM): 532 CPM
[1]; 100 μM
  125I PDGF-BB Bound (CPM): 378 CPM
[1]; 1.5 h, 6.2 μM, read-out: % Control Binding
  remaining activity at 6.2 µM: 52%
[1]; 1.5 h, 12.5 μM, read-out: % Control Binding
  remaining activity at 12.5 µM: 28%
[1]; 1.5 h, 25 μM, read-out: % Control Binding
  remaining activity at 25 µM: 9%
[1]; 1.5 h, 50 μM, read-out: % Control Binding
  remaining activity at 50 µM: 5%
[1]; 1.5 h, 100 μM, read-out: % Control Binding
  remaining activity at 100 µM: 4%
[1]; rat SMCs
  Inhibition of PDGF-BB binding to cell-surface PDGF receptors (in words): potent inhibitor
